Results as given in PMC9440028, “Neurotensin analogs by fluoroglycosylation at N^ω-carbamoylated arginines for PET imaging of NTS1-positive tumors” (Scientific Reports, 2022).
Where two headings read alike, the source gives them in different places.

Columns and labels:
hNTS1R = target: T1, hNTS1R (Homo sapiens, UniProt P30989); assay: Radioligand competition binding with [^3H]UR-MK300 at intact HT-29 cells; details: [^3H]UR-MK300 (Kd = […], c = 1 nM), 23 °C
T1 construct: at hNTS1R expressing intact human HT-29 colon carcinoma cells; endogenous in cells; host or cells: HT-29 human colon carcinoma cells (intact)
T1 sequence (P30989 whole entry): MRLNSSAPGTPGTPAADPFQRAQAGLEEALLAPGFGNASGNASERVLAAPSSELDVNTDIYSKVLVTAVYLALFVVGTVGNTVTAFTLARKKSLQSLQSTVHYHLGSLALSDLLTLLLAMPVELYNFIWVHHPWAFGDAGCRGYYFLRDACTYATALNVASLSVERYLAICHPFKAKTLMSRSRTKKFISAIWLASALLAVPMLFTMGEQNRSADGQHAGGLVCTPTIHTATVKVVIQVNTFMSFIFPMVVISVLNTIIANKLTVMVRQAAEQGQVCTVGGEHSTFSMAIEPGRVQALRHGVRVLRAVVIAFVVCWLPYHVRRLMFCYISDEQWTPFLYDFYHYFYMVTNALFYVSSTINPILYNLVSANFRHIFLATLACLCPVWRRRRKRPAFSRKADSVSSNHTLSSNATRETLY
Protocol: Unspecific binding was subtracted from total binding to obtain specific binding. Data analysis was performed by plotting % specifically bound radioligand (100% = specifically bound radioligand in the absence of competitor) over log(concentration of competitor) followed by a four-parameter logistic fit (SigmaPlot 12.5, Systat Software). […] The Ki values from individual experiments were transformed to pKi values, followed by the calculation of mean pKi values ± SEM.

[1] = In vitro stability in human plasma/PBS (1:2 v/v) at 37 °C; type: in vitro ADME; details: human blood plasma/PBS (1:2 v/v), read-out: % intact peptide in human plasma after the given incubation time; for remaining at 6 h, 100 µM: pH 7.4, 6 h; for remaining at 24 h, 100 µM: pH 7.4, 24 h; for remaining at 48 h, 100 µM: pH 7.4, 48 h; for remaining at 10 min, 100 µM: pH 7.4, 10 min; for remaining at 1 h, 100 µM: pH 7.4, 1 h
Protocol: (§1) The metabolic stabilities of 11–14, 16 and 18–21 (cf. Table 2) were investigated in human blood plasma/PBS (136.9 mM NaCl, 2.68 mM KCl, 5.62 mM Na2HPO4, 1.09 mM NaH2PO4 and 1.47 mM KH2PO4) pH 7.4 (1:2, v/v) according to a described procedure[13] with the following modifications: 5 mM stock solutions in EtOH/0.04% aq TFA (30:70 v/v) (11–13), MeCN/0.025% aq TFA (30:70 v/v) (14), MeCN/0.04% aq TFA (30:70 v/v) (16, 19 and 21) or EtOH/H2O (40:60 v/v) (18, 20) were used for the addition of the peptides to plasma/PBS (1:2 v/v). As the RP-HPLC purity of 1-Methyl-D-Trp (internal standard, IS) was < 95% (data not shown), the compound was purified by preparative HPLC to give a purity of > 99%. The concentration of the peptides in plasma/PBS (1:2 v/v) was 80 and 4 µM (recovery determination) or 100 µM (stability tests). The obtained recoveries and the recovery ratios (peptide/internal standard) are summarized in Supplementary Table S1. Data analysis was based on UV detection at 220 nm. Additionally, the stability of compound 21 was investigated in mouse plasma/PBS (1:2 v/v) using the same procedure as described above for human plasma. Mouse plasma was obtained by the collection of blood from anaesthetized mice via cardiac puncture using a syringe that was rinsed with sodium heparin (25,000 I.E., Ratiopharm, Ulm, Germany). The heparinized blood was transferred into a 2-mL reaction vessel, followed by centrifugation (1200 g, 4 °C, 10 min). The supernatants were pooled, centrifuged again (1200 g, 4 °C, 10 min), the plasma was aliquoted and stored at − 80 °C. The concentration of 21 in plasma/PBS (1:2 v/v) was 80 and 4 μM (recovery determination) or 100 μM (stability tests). The obtained recoveries and the recovery ratios (21/IS) are summarized in Supplementary Table S2. Data analysis was based on UV detection at 220 nm.

[2] = In vitro stability in mouse plasma/PBS (1:2 v/v) at 37 °C; type: in vitro ADME; details: read-out: % intact peptide in mouse plasma after the given incubation time
Protocol: as §1

[3] = read-out: pKi ± SEM (converted)

| SMILES | Ki (hNTS1R; mean) | Ki (hNTS1R; mean, read-out: Ki (converted)) [nM] | remaining at 2 h, 100 µM ([1]; pH 7.4, 2 h) [%] | remaining at 6 h, 100 µM [1] [%] | remaining at 24 h, 100 µM [1] [%] | remaining at 48 h, 100 µM [1] [%] | Ki (hNTS1R; [3]) [nM] | remaining at 10 min, 100 µM [1] [%] | remaining at 1 h, 100 µM [1] [%] | remaining at 10 min, 100 µM ([2]; pH 7.4, 10 min) [%] | remaining at 1 h, 100 µM ([2]; pH 7.4, 1 h) [%] | remaining at 2 h, 100 µM ([2]; pH 7.4, 2 h) [%] | remaining at 6 h, 100 µM ([2]; pH 7.4, 6 h) [%] | remaining at 24 h, 100 µM ([2]; pH 7.4, 24 h) [%] | remaining at 48 h, 100 µM ([2]; pH 7.4, 48 h) [%] |
| --- | --- | --- | --- | --- | --- | --- | --- | --- | --- | --- | --- | --- | --- | --- | --- |
| CN[C@@H](CCCNC(=N)N)C(=O)N[C@@H](CCCNC(=N)NC(=O)NCCCCc1cn([C@@H]2O[C@H](CF)[C@@H](O)[C@H](O)[C@H]2O)nn1)C(=O)N1CCC[C@H]1C(=O)N[C@@H](Cc1ccc(O)cc1)C(=O)N[C@H](C(=O)N[C@@H](CC(C)C)C(=O)O)C(C)(C)C [Compound 13, N^α-(N^α-methylarginyl)-{N^ω-[N-(4-{1-[6-deoxy-6-fluoro-β-D-glucopyranosyl]-1H-1,2,3-triazol-4-yl}butyl)aminocarbonyl]}Arg-Pro-Tyr-2-tert-butyl-Gly-Leu-OH tris(hydrotrifluoroacetate)] | one-digit nanomolar range | 6.2 | > 99 | > 99 | > 99 | 96 ± 1 | – | – | – | – | – | – | – | – | – |
| C#CCCC(=O)NCCCCNC(=O)NC(=N)NCCC[C@H](N)C(=O)N[C@@H](CCCNC(=N)N)C(=O)N1CCC[C@H]1C(=O)N[C@@H](Cc1ccc(O)cc1)C(=O)N[C@H](C(=O)N[C@@H](CC(C)C)C(=O)O)C(C)(C)C [Compound 18, H-{N^ω-[N-(4-pent-4-ynoylaminobutyl)aminocarbonyl]}Arg-Arg-Pro-Tyr-2-tert-butyl-Gly-Leu-OH tris(hydrotrifluoroacetate)] | – | 4.4 | – | < 1 | < 1 | – | 4.27 | 59 ± 1 | < 1 | – | – | – | – | – | – |
| CC(C)C[C@H](NC(=O)[C@@H](NC(=O)[C@H](Cc1ccc(O)cc1)NC(=O)[C@@H]1CCCN1C(=O)[C@H](CCCNC(=N)N)NC(=O)[C@@H](N)CCCNC(=N)NC(=O)NCCCCNC(=O)CCc1cn([C@@H]2O[C@H](CF)[C@@H](O)[C@H](O)[C@H]2O)nn1)C(C)(C)C)C(=O)O [Compound 20, H-(N^ω-{N-[4-(3-{1-[6-deoxy-6-fluoro-β-D-glucopyranosyl]-1H-1,2,3-triazol-4-yl}propanoyl)aminobutyl]aminocarbonyl})Arg-Arg-Pro-Tyr-2-tert-butyl-Gly-Leu-OH tris(hydrotrifluoroacetate)] | – | 2.5 | – | – | < 1 | – | – | 78 ± 1 | 6.4 ± 0.1 | – | – | – | – | – | – |
| CN[C@@H](CCCNC(=N)NC(=O)NCCCCNC(=O)CCc1cn([C@@H]2O[C@H](CF)[C@@H](O)[C@H](O)[C@H]2O)nn1)C(=O)N[C@@H](CCCNC(=N)N)C(=O)N1CCC[C@H]1C(=O)N[C@@H](Cc1ccc(O)cc1)C(=O)N[C@H](C(=O)N[C@@H](CC(C)C)C(=O)O)C(C)(C)C [Compound 21, N^α-methyl-(N^ω-{N-[4-(3-{1-[6-deoxy-6-fluoro-β-D-glucopyranosyl]-1H-1,2,3-triazol-4-yl}propanoyl)aminobutyl]aminocarbonyl})Arg-Arg-Pro-Tyr-2-tert-butyl-Gly-Leu-OH tris(hydrotrifluoroacetate)] | one-digit nanomolar range | 4.3 | – | > 99 | > 99 | 99 ± 1 | 4.07 | – | > 99 | > 99 | > 99 | > 99 | > 99 | > 99 | > 99 |
| CC(C)C[C@H](NC(=O)[C@@H](NC(=O)[C@H](Cc1ccc(O)cc1)NC(=O)[C@@H]1CCCN1C(=O)[C@H](CCCNC(=N)N)NC(=O)[C@@H](N)CCCNC(=N)NC(=O)NCCCCN)C(C)(C)C)C(=O)O [Compound 14, N^ω-[(4-aminobutyl)aminocarbonyl]Arg-Arg-Pro-Tyr-2-tert-butyl-Gly-Leu-OH tetrakis(hydrotrifluoroacetate)] | – | 2.2 | – | < 1 | < 1 | – | 2.04 | 50 ± 2 | < 1 | – | – | – | – | – | – |
